SMILES strings stand for the structures. ≈ marks a conversion by molar mass, not a printed value.

The nature of data set [1]: slurry conversion of polymorph mixtures (relative thermodynamic stability). The class given is physicochemical. Particulars: mixtures of H2-1 and H2-2 in aqueous ethanol slurries; conversion observed at 5, 25, 50 and 80° C.
Data set [2] deals with ultrarapidly activating, sustained potassium current (IKur, also known as Kv1.5) (Homo sapiens, UniProt P22460). The following applies: cited from earlier work.
Sequence of ultrarapidly activating, sustained potassium current (IKur, also known as Kv1.5) (P22460 whole entry): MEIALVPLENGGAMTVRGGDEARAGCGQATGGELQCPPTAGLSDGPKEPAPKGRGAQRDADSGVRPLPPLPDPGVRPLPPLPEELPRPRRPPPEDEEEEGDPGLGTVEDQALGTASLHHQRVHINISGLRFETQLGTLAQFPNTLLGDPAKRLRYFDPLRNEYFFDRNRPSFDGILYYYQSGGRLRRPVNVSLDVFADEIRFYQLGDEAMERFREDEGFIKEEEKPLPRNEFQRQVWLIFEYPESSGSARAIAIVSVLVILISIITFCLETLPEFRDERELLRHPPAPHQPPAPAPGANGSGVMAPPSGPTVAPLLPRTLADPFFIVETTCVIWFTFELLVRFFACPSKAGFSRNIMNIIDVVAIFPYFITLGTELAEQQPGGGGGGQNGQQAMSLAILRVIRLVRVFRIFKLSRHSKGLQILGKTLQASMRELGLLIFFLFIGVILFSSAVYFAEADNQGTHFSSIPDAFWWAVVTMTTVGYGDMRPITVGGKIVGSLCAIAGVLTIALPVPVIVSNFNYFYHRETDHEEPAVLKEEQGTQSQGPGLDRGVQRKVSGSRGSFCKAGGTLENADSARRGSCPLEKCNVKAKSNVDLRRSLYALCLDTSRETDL
Data set [3] in a line: aqueous solubility. Particulars: water; depending on crystalline form. The class given is physicochemical.
A short description of data set [4]: solid-state stability (light, heat, physical and chemical). In kind it is physicochemical.
The nature of data set [5]: hygroscopicity. The class given is physicochemical.
Data set [6] can be described thus: oral bioavailability. The following applies: in vivo.

For the molecule `CC1=C(C(=O)N2CCC[C@H]2c2ccc(F)cc2)[C@@H](c2ccc(Cl)c(Cl)c2)n2nccc2N1` [H2-2 dihydrate], the “relative thermodynamic stability of polymorphs” value in data set [1] is “thermodynamically more stable than the H2-1 dihydrate”.
`CC1=C(C(=O)N2CCC[C@H]2c2ccc(F)cc2)[C@@H](c2ccc(Cl)c(Cl)c2)n2nccc2N1` [IKur compound, (2S)-1-[[(7R)-(3,4-dichlorophenyl)-4,7-dihydro-5-methylpyrazolo[1,5-]pyrimidine-6-yl]carbonyl]-2-(4-fluorophenyl)pyrrolidine]: the “blocking of IKur (Kv1.5)” value in data set [2] was “selective blocker”. The solubility in data set [3] lay in the range of 2 to 4 µg/mL (≈ 4.24 to 8.49 µM). Moreover, in data set [4] (amorphous form and crystalline forms), the “sensitivity to light and heat” value is “sensitive to light and heat”.
For `CC1=C(C(=O)N2CCC[C@H]2c2ccc(F)cc2)[C@@H](c2ccc(Cl)c(Cl)c2)n2nccc2N1` [N-3 anhydrate], in data set [5], the hygroscopicity result was “low hygroscopicity”. The oral bioavailability result in data set [6] is given as “satisfactory oral bioavailability”. In data set [4], the “solid-state stability (physical and chemical)” value was “satisfactory solid-state stability”.

The term solubility denotes how much of the substance goes into solution per volume.

These data come from patent publication US20060128726A1, “Process for preparing novel crystalline forms of (2S)-1-[[(7R)-7-(3,4-dichlorophenyl)-4,7-dihydro-5-methylpyrazolo[1,5]pyrimidine-6-yl]carbonyl]-2-(4-fluorophenyl)pyrrolidine, novel stable forms produced therein and formulations” (priority 2004, published 2006).
